Experimental data: patent US20040019092A1, “Non-peptide somatostatin receptor ligands” (priority 2001, published 2004)
Several values for one entry are separate records, joined by “and”; a condition that tells them apart may be missing. Identical values can stand only once. Like-named read-outs stand apart in the source and are kept apart here. Values belong to the compound of their own block, whether it stands above or below them.

Tests used:
[1] = test system: SRIF receptors ([^125I]SRIF-28 binding sites); test: Ex-vivo [^125I]Tyr^26-SRIF-28 binding in rat cortex and hippocampus after s.c. dosing; set-up: species or system Wistar rats; settings: 60 min
Description: Ex-vivo binding was used to determine to whether compound 14 (a potent sst2 receptor selective hydantoin) when applied peripherally to rates can cross the blood brain barrier, as robust behavioral models are not fully characterized and blood-brain penetration models are not routinely available. […] The rats were given saline or drug sub-cutaneously at the indicated dose (in saline) and killed 60 minutes after application with CO2. The brain was removed and placed on ice; the cerebral cortex and hippocampus were dissected out and weighted. […] The homogenate was stored on ice and used immediately or deep frozen (-70° C.) until used (1-3 days). […] The tables list the effects of compound 14 on cortex (Table 6) and hippocampus (Table 7) binding at the doses and times indicated (see also FIGS. 3 and 4). TB=total binding, NS=non specific binding, SB=specific binding. The values are indicated in cpm for individual animals, mean, n=number of animals, sem=standard error of the mean; percent=% specific binding remaining following treatment compared to controls.

sst2 = sst2 (Homo sapiens, UniProt P30874); test: sst2 cyclase (second messenger studies); type: cell-based
sst2, sequence (P30874 whole entry, species assumed): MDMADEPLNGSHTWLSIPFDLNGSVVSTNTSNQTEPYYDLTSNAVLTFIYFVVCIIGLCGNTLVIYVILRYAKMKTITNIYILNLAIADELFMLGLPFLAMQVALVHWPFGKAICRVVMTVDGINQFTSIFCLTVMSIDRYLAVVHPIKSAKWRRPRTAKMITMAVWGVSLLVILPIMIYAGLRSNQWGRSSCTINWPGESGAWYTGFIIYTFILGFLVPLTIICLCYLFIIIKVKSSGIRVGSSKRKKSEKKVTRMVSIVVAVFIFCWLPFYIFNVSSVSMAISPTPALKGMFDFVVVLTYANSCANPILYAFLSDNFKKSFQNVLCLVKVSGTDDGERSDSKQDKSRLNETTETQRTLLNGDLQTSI
Source text: In particular the compounds of the invention bind to somatostatin receptors. More particularly they are selective agonists at Somatostatin sst2 receptors, as determined in radioligand binding and second messenger studies (see for example K. Kaupmann et al., FEBS LETTERS 1993, 331, […]).

[2] = Capillary depletion of brain hemispheres; type: in vivo, rat; settings: n=3 rats
Description: The brain extraction ratio E was calculated from E=BUI*0.62, where 0.62 represents the brain extraction ratio of tritiated water (Pardridge, W. M. et al. “Absence of albumin receptor on brain capillaries in vivo or in vitro” Am. J. Physiol, 1985, 249, E264-E267). In order to quantify a possible sequestration of [^14C]-42 by the brain microvasculature, the brain hemispheres of 3 rats were submitted to capillary depletion (Triguero, D, et al. “Capillary depletion method for quantifying the blood-brain barrier transcytosis of circulating peptides and plasma proteins” J. Neurochem, 1990, 54, 1882-1888). The ^14C-radioactivity observed in the pellet (capillary bed/endothelial cells and pericytes) was compared to the ^14C-radioactivity observed in the supernatant (transcytosis space/interstitial fluid).

[3] = Brain penetration in rat after 48-hour intravenous infusion; type: in vivo; settings: rats; for concentration at 48 h / Kp at 48 h: male, rat, iv, 100 μg/h; for Kp at 48 h: brain/whole blood
Description: The in vivo brain penetration of compound 42 after a 48-hour intravenous infusion was assessed. [^14C]-42-ch was intravenously administered to 5 male rats at a loading dose of 0.3 mg(-b)/rat and then infused at a constant rate of 100 μg(-b)/h for 48 hours using a syringe pump connected to the femoral vein. Immediately after stopping the infusion, the rats were sacrificed. Blood and brain were collected and analyzed for total radioactivity and unchanged compound 42.

[4] = cortex, SRIF-28 +MgCl-2, 0.3 mg/kg s.c.
[5] = cortex, SRIF-28 +MgCl-2, 1 mg/kg s.c.
[6] = cortex, SRIF-28 +MgCl-2, 3 mg/kg s.c.
[7] = cortex, SRIF-28 +MgCl-2, 10 mg/kg s.c.
[8] = hippocampus, SRIF-28 +MgCl-2, 0.3 mg/kg s.c.
[9] = hippocampus, SRIF-28 +MgCl-2, 1 mg/kg s.c.
[10] = hippocampus, SRIF-28 +MgCl-2, 3 mg/kg s.c.
[11] = hippocampus, SRIF-28 +MgCl-2, 10 mg/kg s.c.
[12] = 48 hours i.v. infusion 100 μg/h

Structure (SMILES): Cc1cccc2c(CC3C(=O)N(CCCCCN)C(=O)N3S(=O)(=O)c3ccc(Oc4ccc(O)cc4)c(C#N)c3)c[nH]c12 (centres unmarked) [Compound 14]
NS non specific binding, individual animals [1, 4]: 3058 cpm and 2970 cpm and 3027 cpm
NS non specific binding, mean [1, 4]: 3018 cpm
SB specific binding, individual animals [1, 4]: 24318 cpm and 23238 cpm and 23669 cpm
SB specific binding, mean [1, 4]: 23742 cpm
TB total binding, individual animals [1, 4]: 27376 cpm and 26208 cpm and 26696 cpm
TB total binding, mean [1, 4]: 26760 cpm
percent specific binding remaining compared to controls [1, 4]: 89%
NS non specific binding, individual animals [1, 5]: 2915 cpm and 3036 cpm and 3191 cpm
NS non specific binding, mean [1, 5]: 3047 cpm
SB specific binding, individual animals [1, 5]: 21767 cpm and 23930 cpm and 23905 cpm
SB specific binding, mean [1, 5]: 23201 cpm
TB total binding, individual animals [1, 5]: 24682 cpm and 26966 cpm and 27096 cpm
TB total binding, mean [1, 5]: 26248 cpm
percent specific binding remaining compared to controls [1, 5]: 95%
NS non specific binding, individual animals [1, 6]: 2980 cpm and 3016 cpm and 3116 cpm
NS non specific binding, mean [1, 6]: 3037 cpm
SB specific binding, individual animals [1, 6]: 22191 cpm and 21992 cpm and 22578 cpm
SB specific binding, mean [1, 6]: 22254 cpm
TB total binding, individual animals [1, 6]: 25171 cpm and 25008 cpm and 25694 cpm
TB total binding, mean [1, 6]: 25291 cpm
percent specific binding remaining compared to controls [1, 6]: 91%
NS non specific binding, individual animals [1, 7]: 3070 cpm and 3015 cpm and 3305 cpm
NS non specific binding, mean [1, 7]: 3130 cpm
SB specific binding, individual animals [1, 7]: 22730 cpm and 21395 cpm and 23605 cpm
SB specific binding, mean [1, 7]: 22577 cpm
TB total binding, individual animals [1, 7]: 25800 cpm and 24410 cpm and 26910 cpm
TB total binding, mean [1, 7]: 25707 cpm
percent specific binding remaining compared to controls [1, 7]: 93%
NS non specific binding, individual animals [1, 8]: 2936 cpm and 2874 cpm and 2753 cpm
NS non specific binding, mean [1, 8]: 2854 cpm
SB specific binding, individual animals [1, 8]: 18219 cpm and 18124 cpm and 19319 cpm
SB specific binding, mean [1, 8]: 18554 cpm
TB total binding, individual animals [1, 8]: 21155 cpm and 20998 cpm and 22072 cpm
TB total binding, mean [1, 8]: 21408 cpm
percent specific binding remaining compared to controls [1, 8]: 112%
NS non specific binding, individual animals [1, 9]: 2754 cpm and 2528 cpm and 2621 cpm
NS non specific binding, mean [1, 9]: 2634 cpm
SB specific binding, individual animals [1, 9]: 17055 cpm and 18516 cpm and 18145 cpm
SB specific binding, mean [1, 9]: 17905 cpm
TB total binding, individual animals [1, 9]: 19809 cpm and 21044 cpm and 20766 cpm
TB total binding, mean [1, 9]: 20540 cpm
percent specific binding remaining compared to controls [1, 9]: 108%
NS non specific binding, individual animals [1, 10]: 2532 cpm and 2841 cpm and 2786 cpm
NS non specific binding, mean [1, 10]: 2720 cpm
SB specific binding, individual animals [1, 10]: 15758 cpm and 14336 cpm and 15162 cpm
SB specific binding, mean [1, 10]: 15085 cpm
TB total binding, individual animals [1, 10]: 18290 cpm and 17117 cpm and 17948 cpm
TB total binding, mean [1, 10]: 17805 cpm
percent specific binding remaining compared to controls [1, 10]: 91%
NS non specific binding, individual animals [1, 11]: 2587 cpm and 2850 cpm and 2711 cpm
NS non specific binding, mean [1, 11]: 2716 cpm
SB specific binding, individual animals [1, 11]: 15809 cpm and 14387 cpm and 13715 cpm
SB specific binding, mean [1, 11]: 14637 cpm
TB total binding, individual animals [1, 11]: 18398 cpm and 17237 cpm and 18426 cpm
TB total binding, mean [1, 11]: 17353 cpm
percent specific binding remaining compared to controls [1, 11]: 88%
sst2 cyclase pEC50 (sst2): 9.32

fraction taken up by capillaries, of the brain penetration [2]: 5%
concentration at 48 h ([3]; brain, 48 hours i.v. infusion 100 μg/h, read-out: Concentration in brain, MEAN ± SD): 18 ± 7 ng/g
Kp at 48 h ([3]; 48 hours i.v. infusion 100 μg/h, read-out: Brain/Blood Ratio, MEAN ± SD): 0.27 ± 0.07
Kp at 48 h ([3]; 48 hours i.v. infusion 100 μg/h, read-out: Brain/Blood Ratio, individual animals): 0.27
concentration at 48 h ([3]; whole blood, 48-hours i.v. infusion of 100 μg/h, read-out: blood concentration): 66 ± 14 ng/mL
concentration at 48 h ([3]; whole blood, 48 hours i.v. infusion 100 μg/h, read-out: Concentration in blood, MEAN ± SD): 66 ± 14 ng/g
concentration at 48 h ([3]; whole blood, 48 hours i.v. infusion 100 μg/h, read-out: Concentration in blood, individual animals): 59 ng/g
Brain/Blood Ratio, MEAN ± SD [3, 12]: 0.27 ± 0.07
Brain/Blood Ratio, individual animals [3, 12]: 0.27 and 0.38 and 0.21 and 0.22
Concentration in brain, MEAN ± SD [3, 12]: 18 ± 7 ng/g
Structure (SMILES): N#Cc1cc(S(=O)(=O)N2C(=O)N(CCCCCN)C(=O)C2Cc2c[nH]c3ccccc23)ccc1Oc1ccc(N)cc1 (centres unmarked) [Compound 42]
Concentration in brain, individual animals [3, 12]: 16 ng/g (2×) and 21 ng/g and 29 ng/g and 10 ng/g
